Where a name gives a salt, the structure may show the parent alone.
Target: T1, human EP1 receptor (Homo sapiens, UniProt P34995)
T1 construct: expressed in transfected cells; host or cells: CHO-K1
T1 sequence (P34995 1-402): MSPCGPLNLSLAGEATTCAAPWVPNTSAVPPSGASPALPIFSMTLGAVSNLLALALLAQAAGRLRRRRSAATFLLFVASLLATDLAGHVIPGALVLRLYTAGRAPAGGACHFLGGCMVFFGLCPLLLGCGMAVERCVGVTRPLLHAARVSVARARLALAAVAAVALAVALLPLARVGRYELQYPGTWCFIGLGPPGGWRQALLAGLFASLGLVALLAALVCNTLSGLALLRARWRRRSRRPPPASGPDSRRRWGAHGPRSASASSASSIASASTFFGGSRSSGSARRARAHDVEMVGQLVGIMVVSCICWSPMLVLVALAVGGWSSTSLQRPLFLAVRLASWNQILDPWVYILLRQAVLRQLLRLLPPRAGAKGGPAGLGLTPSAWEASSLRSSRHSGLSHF
Assay: human EP1 calcium mobilisation assay
Assay type: cell-based
Conditions: human EP1, PGE2-induced calcium mobilisation in CHO-K1 cells; free bases or sodium salts; averages of a number of experiments; read-out: functional pKi value (converted)
Procedure, shortened: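 CHO-K1 cells stably expressing human EP1, loaded with Fluo-4 after 24 h at 37° C; compounds added before PGE2 challenge. Inhibition of PGE2-induced [Ca2+]i rise read by FLIPR fluorescence; pIC50 from curve fitting of half-maximal inhibition.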

Row | Compound | Ki
1 | CCN1CCN(c2ccc3nc(-c4ccc(Cc5cc(Cl)ccc5OCC(C)C)o4)[nH]c3c2)CC1 [Example 114, 2-[5-({5-Chloro-2-[(2-methylpropyl)oxy]-phenyl}methyl)-2-furanyl]-5-(4-ethyl-1-piperazinyl)-1H-benzimidazoletrihydrochloride] | < 1000 nM
2 | CC(C)COc1ccc(Cl)cc1Cc1ccc(-c2nc3ncccc3[nH]2)o1 [Example 116, 2-[5-({5-Chloro-2-[(2-methylpropyl)oxy]phenyl}-methyl)-2-furanyl]-1H-imidazo[4,5-b]pyridine] | < 1000 nM
3 | CC(C)COc1ccc(Cl)cc1Cc1ccc(-c2nc3cnc4ccccc4c3[nH]2)o1 [Example 118, 2-[5-({5-Chloro-2-[(2-methylpropyl)oxy]phenyl}-methyl)-2-furanyl]-1H-imidazo[4,5-c]quinoline] | < 1000 nM
4 | CC(C)COc1ccc(Cl)cc1Cc1ccc(-c2nc3cc4cn[nH]c4cc3[nH]2)o1 [Example 119, 6-[5-({5-Chloro-2-[(2-methylpropyl)oxy]phenyl}-methyl)-2-furanyl]-1,5-dihydroimidazo[4,5-f]indazole] | < 1000 nM
5 | Clc1ccc(OCc2ccccc2)c(Cc2ccc(-c3nc4cnccc4[nH]3)o2)c1 [Example 120, 2-[5-({5-Chloro-2-[(phenylmethyl)oxy]-phenyl}methyl)-2-furanyl]-1H-imidazo[4,5-c]pyridine hydrochloride] | < 1000 nM
6 | Clc1ccc(OCc2ccccc2)c(Cc2ccc(-c3nc4ncccc4[nH]3)o2)c1 [Example 121, 2-[5-({5-Chloro-2-[(phenylmethyl)oxy]-phenyl}methyl)-2-furanyl]-1H-imidazo[4,5-b]pyridine] | < 1000 nM
7 | CC(C)COc1ccc(Cl)cc1Cc1ccc(-c2nc3cc(F)ccc3[nH]2)o1 [Example 122, 2-[5-({5-Chloro-2-[(2-methyipropyl)oxy]phenyl}methyl)-2-furanyl]-5-fluoro-1H-benzimidazole] | < 1000 nM
8 | CC(C)COc1ccc(Cl)cc1Cc1ccc(-c2nc3cc(Cl)ccc3[nH]2)o1 [Example 123, 5-Chloro-2-[5-({5-chloro-2-[(2-methylpropyl)oxy]phenyl}-methyl)-2-furanyl]-1H-benzimidazole] | < 1000 nM
9 | CC(C)COc1ccc(Cl)cc1Cc1ccc(-c2nc3cc(F)c(F)cc3[nH]2)o1 [Example 124, 2-[5-({5-Chloro-2-[(2-methylpropyl)oxy]phenyl}-methyl)-2-furanyl]-5,6-difluoro-1H-benzimidazole] | < 1000 nM
10 | Cc1ccc2[nH]c(-c3ccc(Cc4cc(Cl)ccc4OCC(C)C)o3)nc2c1 [Example 125, 2-[5-({5-Chloro-2-[(2-methylpropyl)oxy]phenyl}-methyl)-2-furanyl]-5-methyl-1H-benzimidazole] | < 1000 nM
11 | CC(C)COc1ccc(Cl)cc1Cc1ccc(-c2nc3cc(C(F)(F)F)ccc3[nH]2)o1 [Example 126, 2-[5-({5-Chloro-2-[(2-methylpropyl)oxy]phenyl}-methyl)-2-furanyl]-5-(trifluoromethyl)-1H-benzimidazole] | < 1000 nM
12 | CC(C)COc1ccc(Cl)cc1Cc1ccc(-c2nc3cc(C(C)(C)C)ccc3[nH]2)o1 [Example 127, 2-[5-({5-Chloro-2-[(2-methylpropyl)oxy]phenyl}-methyl)-2-furanyl]-5-(1,1-dimethylethyl)-1H-benzimidazole] | < 1000 nM
13 | CC(C)COc1ccc(Cl)cc1Cc1ccc(-c2nc3ccc(F)c(F)c3[nH]2)o1 [Example 128, 2-[5-({5-Chloro-2-[(2-methylpropyl)oxy]phenyl}-methyl)-2-furanyl]-4,5-difluoro-1H-benzimidazole] | < 1000 nM
14 | Fc1cc2nc(-c3ccc(Cc4cc(Cl)ccc4OCc4ccccc4)o3)[nH]c2cc1F [Example 129, 2-[5-({5-Chloro-2-[(phenylmethyl)oxy]phenyl}methyl)-2-furanyl]-5,6-difluoro-1H-benzimidazole] | < 1000 nM
15 | Fc1cccc2nc(-c3ccc(Cc4cc(Cl)ccc4OCc4ccccc4)o3)[nH]c12 [Example 131, 2-[5-({5-Chloro-2-[(phenylmethyl)oxy]-phenyl}methyl)-2-furanyl]-4-fluoro-1H-benzimidazole] | < 1000 nM
16 | CC(C)COc1ccc(Cl)cc1Cc1ccc(-c2nc3cccc(CO)c3[nH]2)o1 [Example 134, {2-[5-({5-chloro-2-[(2-methylpropyl)oxy]phenyl}methyl)-2-furanyl]-1H-benzimidazol-4-yl}methanol] | > 1000 nM

Row | Compound | Ki
17 | CC(C)COc1ccc(Cl)cc1Cc1ccc(-c2nc3cc(Br)cnc3[nH]2)o1 [Example 135, 6-Bromo-2-[5-({5-chloro-2-[(2-methylpropyl)oxy]phenyl}methyl)-2-furanyl]-1H-imidazo[4,5-b]pyridine hydrochloride] | > 1000 nM
18 | C=Cc1cnc2[nH]c(-c3ccc(Cc4cc(Cl)ccc4OCC(C)C)o3)nc2c1 [Example 137, 2-[5-({5-Chloro-2-[(2-methylpropyl)oxy]phenyl}methyl)-2-furanyl]-6-ethenyl-1H-imidazo[4,5-b]pyridine hydrochloride] | < 1000 nM
19 | CN(C)Cc1ccc2nc(-c3ccc(Cc4cc(Cl)ccc4OCc4ccccc4)o3)[nH]c2c1 [Example 138, ({2-[5-({5-Chloro-2-[(phenylmethyl)oxy]phenyl}methyl)-2-furanyl]-1H-benzimidazol-5-yl}methyl)dimethylamine dihydrochloride] | < 1000 nM
20 | Clc1ccc(OCc2ccccc2)c(Cc2ccc(-c3nc4ccc(CN5CCOCC5)cc4[nH]3)o2)c1 [Example 139, 2-[5-({5-Chloro-2-[(phenylmethyl)oxy]-phenyl}methyl)-2-furanyl]-5-(4-morpholinylmethyl)-1H-benzimidazoledihydrochloride] | < 1000 nM
21 | Clc1ccc(OCc2ccccc2)c(Cc2ccc(-c3nc4ccc(CN5CCCC5)cc4[nH]3)o2)c1 [Example 140, 2-[5-({5-Chloro-2-[(phenylmethyl)oxy]-phenyl}methyl)-2-furanyl]-5-(1-pyrrolidinylmethyl)-1H-benzimidazoledihydrochloride] | < 1000 nM
22 | Clc1ccc(OCc2ccccc2)c(Cc2ccc(-c3nc4ccc(CN5CCCCC5)cc4[nH]3)o2)c1 [Example 141, 2-[5-({5-Chloro-2-[(phenylmethyl)oxy]-phenyl}methyl)-2-furanyl]-5-(1-piperidinylmethyl)-1H-benzimidazoledihydrochloride] | < 1000 nM
23 | CC(C)COc1ccc(Cl)cc1Cc1ccc(-c2nc3ccc(CN4CCOCC4)cc3[nH]2)o1 [Example 144, 2-[5-({5-Chloro-2-[(2-methylpropyl)oxy]-phenyl}methyl)-2-furanyl]-5-(4-morpholinylmethyl)-1H-benzimidazoledihydrochloride] | < 1000 nM
24 | CCN(CC)Cc1ccc2nc(-c3ccc(Cc4cc(Cl)ccc4OCC(C)C)o3)[nH]c2c1 [Example 150, N-({2-[5-({5-Chloro-2-[(2-methylpropyl)oxy]-phenyl}methyl)-2-furanyl]-1H-benzimidazol-5-yl}methyl)-N-ethylethanaminedihydrochloride] | < 1000 nM
25 | CC(C)COc1ccc(Cl)cc1Cc1ccc(-c2nc3ccc(CN(C)CC4CCOCC4)cc3[nH]2)o1 [Example 152, ({2-[5-({5-Chloro-2-[(2-methylpropyl)oxy]-phenyl}methyl)-2-furanyl]-1H-benzimidazol-5-yl}methyl)methyl(tetrahydro-2H-pyran-4-ylmethyl)aminedihydrochloride] | < 1000 nM
26 | CC(C)COc1ccc(Cl)cc1Cc1ccc(-c2nc3ccc(CN(C)CC(C)(C)C)cc3[nH]2)o1 [Example 153, N-({2-[5-({5-Chloro-2-[(2-methylpropyl)oxy]-phenyl}methyl)-2-furanyl]-1H-benzimidazol-5-yl}methyl)-N,2,2-trimethyl-1-propanaminedihydrochloride] | < 1000 nM
27 | CCNCc1ccc2nc(-c3ccc(Cc4cc(Cl)ccc4OCC(C)C)o3)[nH]c2c1 [Example 154, N-({2-[5-({5-Chloro-2-[(2-methylpropyl)oxy]-phenyl}methyl)-2-furanyl]-1H-benzimidazol-5-yl}methyl)ethanaminedihydrochloride] | < 1000 nM
28 | CC(C)COc1ccc(Cl)cc1Cc1ccc(-c2nc3ccc(CNC(C)C)cc3[nH]2)o1 [Example 155, N-({2-[5-({5-Chloro-2-[(2-methylpropyl)oxy]-phenyl}methyl)-2-furanyl]-1H-benzimidazol-5-yl}methyl)-2-propanaminedihydrochloride] | < 1000 nM
29 | CN1CCN(Cc2cccc3nc(-c4ccc(Cc5cc(Cl)ccc5OCc5ccccc5)o4)[nH]c23)CC1 [Example 160, 2-[5-({5-Chloro-2-[(phenylmethyl)oxy]-phenyl}methyl)-2-furanyl]-4-[(4-methyl-1-piperazinyl)methyl]-1H-benzimidazolehydrochloride] | < 1000 nM
30 | CC(C)COc1ccc(Cl)cc1Cc1ccc(-c2nc3cc(CCN4CCCC4)ccc3[nH]2)o1 [Example 161, 2-[5-({5-Chloro-2-[(2-methylpropyl)oxy]-phenyl}methyl)-2-furanyl]-5-[2-(1-pyrrolidinyl)ethyl]-1H-benzimidazoledihydrochloride] | < 1000 nM
31 | CC(C)COc1ccc(Cl)cc1Cc1ccc(-c2nc3cc(CCN(C)C)ccc3[nH]2)o1 [Example 163, (2-{2-[5-({5-Chloro-2-[(2-methylpropyl)oxy]-phenyl}methyl)-2-furanyl]-1H-benzimidazol-5-yl}ethyl)dimethylaminedihydrochloride] | < 1000 nM
